From US5061794A, “Cephalosporin derivatives, and antibacterial agents” (priority 1986, dated 1991)
Read-outs that look alike come from different tables or passages of the source.

Legend:
[1] = tested on: E. coli CSH(RE45); test: microbe, parasite or virus in culture; type: cell-based; details: Escherichia coli, 16 h, read-out: Minimum Inhibitory Concentration (MIC), *E. coli CSH(RE45), lactamase-producing strain; 10^6 CFU/ml
Outline: (§1)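 Agar dilution: MH agar + graded drug conc.; inoculum 10^6 CFU/ml (overnight MH broth culture, one loopful); 37° C., 16 h; MIC, μg/ml.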

[2] = tested on: E. coli CSH2 (RK1); test: microbe, parasite or virus in culture; type: cell-based; details: Escherichia coli, 16 h, read-out: Minimum Inhibitory Concentration (MIC), *E. coli CSH2 (RK1), lactamase-producing strain; 10^6 CFU/ml
Outline: as §1

[3] = tested on: E. cloacae 963; test: in vitro antibacterial activity, agar plate dilution method (MIC); type: cell-based; details: 10^6 CFU/ml
Outline: as §1

[4] = tested on: E. cloacae Nek 39; test: as above; type: cell-based; details: Enterobacter cloacae, NEK39, 16 h, read-out: Minimum Inhibitory Concentration (MIC), *E. cloacae Nek 39, lactamase-producing strain; 10^6 CFU/ml
Outline: as §1

[5] = tested on: E. coli GN5482; test: as above; type: cell-based; details: Escherichia coli, GN5482, 16 h
Outline: as §1

[6] = tested on: E. coli NIHJ JC2; test: as above; type: cell-based; details: Escherichia coli, NIHJJC2, 16 h, read-out: Minimum Inhibitory Concentration (MIC), E. coli NIHJ JC2, 10^6 CFU/ml, 37° C.
Outline: as §1

[7] = tested on: K. oxytoca GN10650; test: as above; type: cell-based; details: Klebsiella oxytoca, GN10650, 16 h, read-out: Minimum Inhibitory Concentration (MIC), *K. oxytoca GN10650, lactamase-producing strain; 10^6 CFU/ml
Outline: as §1

[8] = tested on: K. pneumoniae No. 42; test: as above; type: cell-based; details: Klebsiella pneumoniae, NO.42, 16 h, read-out: Minimum Inhibitory Concentration (MIC), *K. pneumoniae No. 42, lactamase-producing strain; 10^6 CFU/ml
Outline: as §1

[9] = tested on: K. pneumoniae PCI-602; test: as above; type: cell-based; details: Klebsiella pneumoniae, PCI602, 16 h, 10^6 CFU/ml
Outline: as §1

[10] = tested on: M. morganii GN5407; test: as above; type: cell-based; details: Morganella morganii, GN5407, 16 h, read-out: Minimum Inhibitory Concentration (MIC), *M. morganii GN5407, lactamase-producing strain; 10^6 CFU/ml
Outline: as §1

[11] = tested on: P. vulgaris HX-19; test: as above; type: cell-based; details: Proteus vulgaris, HX19, 16 h, read-out: Minimum Inhibitory Concentration (MIC)
Outline: as §1

[12] = tested on: P. vulgaris No. 33; test: as above; type: cell-based; details: Proteus vulgaris, NO.33, 16 h, read-out: Minimum Inhibitory Concentration (MIC), *P. vulgaris No. 33, lactamase-producing strain; 10^6 CFU/ml
Outline: as §1

[13] = tested on: S. aureus 209P NIHJ-JC1; test: as above; type: cell-based; details: Staphylococcus aureus, 16 h, read-out: Minimum Inhibitory Concentration (MIC)
Outline: as §1

[14] = tested on: S. marcescens IAM 1184; test: as above; type: cell-based; details: Serratia marcescens, IAM1184, 16 h, read-out: Minimum Inhibitory Concentration (MIC)
Outline: as §1

[15] = tested on: S. marcescens No. 16-2; test: as above; type: cell-based; details: Serratia marcescens, NO.162, 16 h
Outline: as §1

[16] = tested on: Ps. aeruginosa AK 109; test: as above; type: cell-based, Pseudomonas aeruginosa; details: Pseudomonas aeruginosa, AK109, 16 h
Outline: as §1

[17] = tested on: Ps. aeruginosa AKR17; test: as above; type: cell-based, Pseudomonas aeruginosa; details: Pseudomonas aeruginosa
Outline: as §1

[18] = tested on: Ps. aeruginosa IF03445; test: as above; type: cell-based, Pseudomonas aeruginosa; details: Pseudomonas aeruginosa, IF03445, 16 h, read-out: Minimum Inhibitory Concentration (MIC), Ps. aeruginosa IF03445; 10^6 CFU/ml
Outline: as §1

[19] = tested on: Ps. cepacia 23; test: as above; type: cell-based, Pseudomonas cepacia; details: read-out: Minimum Inhibitory Concentration (MIC)
Outline: as §1

[20] = tested on: A. calcoaceticus No. 4; test: as above; type: cell-based, Acinetobacter calcoaceticus; details: Acinetobacter calcoaceticus, NO.4, 16 h, 10^6 CFU/ml
Outline: as §1

[21] = Enterobacter cloacae, 963, 16 h, read-out: Minimum Inhibitory Concentration (MIC), E. cloacae 963
[22] = read-out: Minimum Inhibitory Concentration (MIC), *E. coli GN5482, lactamase-producing strain, 10^6 CFU/ml
[23] = read-out: Minimum Inhibitory Concentration (MIC), K. pneumoniae PCI-602
[24] = read-out: Minimum Inhibitory Concentration (MIC), *S. marcescens No. 16-2, lactamase-producing strain, 10^6 CFU/ml
[25] = read-out: Minimum Inhibitory Concentration (MIC), Ps. aeruginosa AK 109, 10^6 CFU/ml
[26] = AKR17, 16 h, read-out: Minimum Inhibitory Concentration (MIC)
[27] = read-out: Minimum Inhibitory Concentration (MIC), A. calcoaceticus No. 4
[28] = S. marcescens IAM 1184, 10^6 CFU/ml
[29] = read-out: Minimum Inhibitory Concentration (MIC)
[30] = Burkholderia cepacia, 16 h, Ps. cepacia 23, 10^6 CFU/ml
[31] = A. calcoaceticus No. 4, read-out: Minimum Inhibitory Concentration (MIC)
[32] = Enterobacter cloacae, 16 h, E. cloacae 963, read-out: Minimum Inhibitory Concentration (MIC)
[33] = S. aureus 209P NIHJ-JC1, 10^6 CFU/ml, 37° C., 16 hours
[34] = K. pneumoniae PCI-602, read-out: Minimum Inhibitory Concentration (MIC)

CCON=C(C(=O)N[C@@H]1C(=O)N2C(C(=O)[O-])=C(CSc3ncc(-c4ccc(O)c(O)c4)o3)CS[C@H]12)c1csc(N)n1.[Na+] [Ex. 63, sodium 7β-[2-(2-aminothiazol-4-yl)-2-ethoxyiminoacetamido]-3-[5-(3,4-dihydroxyphenyl)-oxazol-2-yl]thiomethyl-3-cephem-4-carboxylate]
MIC [1]: 0.1 µg/mL
MIC [2]: 0.0125 µg/mL
MIC [3, 21]: 0.2 µg/mL
MIC [4]: 0.39 µg/mL
MIC [5, 22]: 1.56 µg/mL
MIC [6]: 0.39 µg/mL
MIC [7]: 3.12 µg/mL
MIC [8]: 0.1 µg/mL
MIC [9, 23]: < 0.006 µg/mL
MIC [10]: 0.1 µg/mL
MIC [11]: 0.0125 µg/mL
MIC [12]: 0.025 µg/mL
MIC [13]: 3.12 µg/mL
MIC [14]: 0.1 µg/mL
MIC [15, 24]: 6.25 µg/mL
MIC [16, 25]: 1.56 µg/mL
MIC [17, 26]: 100 µg/mL
MIC [18]: 1.56 µg/mL
MIC ([19]; Burkholderia cepacia, 23, 16 h): 0.1 µg/mL
MIC [20, 27]: 0.78 µg/mL

Nc1nc(/C(=N/OC(C(=O)O)c2ccc(O)c(O)c2)C(=O)N[C@@H]2C(=O)N3C(C(=O)O)=C(CSc4ncc(-c5ccc(O)c(O)c5)o4)CS[C@H]23)cs1 (stereo partly drawn) [Ex. 65, disodium 7β-(2-(2-aminothiazol-4-yl)-2-[(α-carboxylate-3,4-dihydroxybenzyl)oxyiminol]-acetamido}-3-[5-(3,4-dihydroxyphenyl)oxazol-2-yl]-thiomethyl-3-cephem-4-carboxylate]
MIC [1]: 0.05 µg/mL
MIC [2]: 0.05 µg/mL
MIC [3, 21]: 0.78 µg/mL
MIC [4]: 0.78 µg/mL
MIC [5, 22]: 6.25 µg/mL
MIC [6]: 1.56 µg/mL
MIC [7]: 0.2 µg/mL
MIC [8]: 0.2 µg/mL
MIC [9, 23]: < 0.006 µg/mL
MIC [10]: 0.2 µg/mL
MIC ([11]; P. vulgaris HX-19, 10^6 CFU/ml): 0.1 µg/mL
MIC [12]: 0.1 µg/mL
MIC [13]: 3.12 µg/mL
MIC [14, 28]: 0.2 µg/mL
MIC [15, 29]: 12.5 µg/mL
MIC [16, 29]: 0.39 µg/mL
MIC ([17]; 16 h, Ps. aeruginosa AKR17, 10^6 CFU/ml, read-out: Minimum Inhibitory Concentration (MIC)): 0.2 µg/mL
MIC [18]: 1.56 µg/mL
MIC [19, 30]: < 0.006 µg/mL
MIC [20, 31]: 0.05 µg/mL

Nc1nc(/C(=N/OC2(C(=O)O)CC2)C(=O)N[C@@H]2C(=O)N3C(C(=O)O)=C(CSc4ncc(-c5ccc(O)c(O)c5)o4)CS[C@H]23)cs1 [Ex. 66, disodium 7β-[2-(2-aminothiazol-4-yl)-2-(1-carboxylate-1-cyclopropoxyimino)acetamido]-3-[5-(3,4-dihydroxyphenyl)oxazol-2-yl]thiomethyl-3-cephem-4-carboxylate]
MIC [1]: 0.05 µg/mL
MIC [2]: 0.0125 µg/mL
MIC [3, 32]: 0.2 µg/mL
MIC [4]: 0.1 µg/mL
MIC [5, 22]: 1.56 µg/mL
MIC [6]: 0.78 µg/mL
MIC [7]: 0.1 µg/mL
MIC [8]: 0.1 µg/mL
MIC [9, 23]: < 0.006 µg/mL
MIC [10]: 0.1 µg/mL
MIC [11]: 0.0125 µg/mL
MIC [12]: 0.025 µg/mL
MIC [13, 33]: 25 µg/mL
MIC [14, 28]: 0.05 µg/mL
MIC [15, 29]: 3.12 µg/mL
MIC [16, 29]: 0.39 µg/mL
MIC [17, 26]: 3.12 µg/mL
MIC [18]: 0.78 µg/mL
MIC [19, 30]: < 0.006 µg/mL
MIC [20, 27]: 0.1 µg/mL

CC(C)(ON=C(C(=O)NC1C(=O)N2C(C(=O)O)=C(CSc3nc(-c4ccc(O)c(O)c4)c(CC(=O)O)s3)CSC12)c1csc(N)n1)C(=O)O (stereo not drawn) [Example 59 (I), trisodium 7β-[2-(2-aminothiazol-4-yl)-2-(1-carboxylate-1-methylethoxyimino)acetamido]-3-[4-(3,4-dihydroxyphenyl)-5-carboxylatemethylthiazol-2yl]thiomethyl-3-cephem-4-carboxylate]
MIC [1]: 0.05 µg/mL
MIC [2]: 0.025 µg/mL
MIC [3, 21]: 0.39 µg/mL
MIC [4]: 0.2 µg/mL
MIC [5, 22]: 1.56 µg/mL
MIC [6]: 1.56 µg/mL
MIC [7]: 0.1 µg/mL
MIC [8]: 0.2 µg/mL
MIC [9, 34]: 0.0125 µg/mL
MIC [10]: 0.1 µg/mL
MIC ([11]; P. vulgaris HX-19, 10^6 CFU/ml): 0.025 µg/mL
MIC [12]: 0.1 µg/mL
MIC [13, 33]: 100 µg/mL
MIC [14, 28]: 0.2 µg/mL
MIC [15, 24]: 1.56 µg/mL
MIC [16, 25]: 1.56 µg/mL
MIC ([17]; AKR17, 16 h, read-out: Minimum Inhibitory Concentration (MIC), Ps. aeruginosa AKR17, 10^6 CFU/ml): 1.56 µg/mL
MIC [18]: 1.56 µg/mL
MIC [19, 30]: < 0.006 µg/mL
MIC [20, 31]: 0.2 µg/mL

Nc1nc(C(=NOC2(C(=O)O)CC2)C(=O)NC2C(=O)N3C(C(=O)O)=C(CSc4nc(-c5ccc(O)c(O)c5)c(CC(=O)O)s4)CSC23)cs1 (stereo not drawn) [Example 60 (I), trisodium 7β-[2-(2-aminothiazol-4-yl)-2-(1-carboxylate-1-cyclopropoxyimino)acetamido]-3-[4-(3,4-dihydroxyphenyl)-5-carboxylatemethylthiazol-2-yl]thiomethyl-3-cephem-4-carboxylate]
MIC [1]: 3.12 µg/mL
MIC [2]: 0.05 µg/mL
MIC [3, 21]: 0.78 µg/mL
MIC [4]: 0.39 µg/mL
MIC [5, 29]: 3.12 µg/mL
MIC [6]: 1.56 µg/mL
MIC [7]: 0.39 µg/mL
MIC [8]: 0.39 µg/mL
MIC [9, 34]: 0.025 µg/mL
MIC [10]: 0.39 µg/mL
MIC ([11]; P. vulgaris HX-19, 10^6 CFU/ml): 0.025 µg/mL
MIC [12]: 0.1 µg/mL
MIC [13, 33]: 50 µg/mL
MIC [14, 28]: 0.2 µg/mL
MIC [15, 29]: 3.12 µg/mL
MIC [16, 25]: 1.56 µg/mL
MIC [17, 26]: 3.12 µg/mL
MIC [18]: 1.56 µg/mL
MIC [19, 30]: 0.0125 µg/mL
MIC [20, 27]: 0.78 µg/mL

CC(=O)Oc1ccc(-c2nc(SCC3=C(C(=O)O)N4C(=O)C(NC(=O)C(=NOC5(C(=O)O)CC5)c5csc(N)n5)C4SC3)sc2CC(=O)O)cc1OC(C)=O (stereo not drawn) [Example 60 (II), trisodium 3-[4-(3,4-diacetoxyphenyl)-5-carboxylate-methylthiazol-2-yl]thiomethyl-78-[2-(2-aminothiazol-4-yl)-2-(1-carboxylate-1-cyclopropoxyimino)acetamido]-3-cephem-4-carboxylate]
MIC [1]: 3.12 µg/mL
MIC [2]: 0.0125 µg/mL
MIC [3, 32]: 0.2 µg/mL
MIC [4]: 0.2 µg/mL
MIC [5, 22]: 0.78 µg/mL
MIC [6]: 0.78 µg/mL
MIC [7]: 0.1 µg/mL
MIC [8]: 0.1 µg/mL
MIC [9, 23]: < 0.006 µg/mL
MIC [10]: 0.1 µg/mL
MIC ([11]; P. vulgaris HX-19, 10^6 CFU/ml): < 0.006 µg/mL
MIC [12]: 0.025 µg/mL
MIC [13, 33]: 25 µg/mL
MIC [14, 28]: 0.05 µg/mL
MIC [15, 24]: 0.78 µg/mL
MIC [16, 25]: 1.56 µg/mL
MIC [17, 26]: 3.12 µg/mL
MIC [18]: 0.78 µg/mL
MIC [19, 30]: < 0.006 µg/mL
MIC [20, 27]: 0.1 µg/mL
